Values of other authors as cited in patent publication EP0557244B1, “Dosage forms having prolonged active-ingredient release” (Siegfried Pharma AG, priority 1992, dated 1993).
Read-outs that look alike come from different tables or passages of the source.

[1] = 20 mg of crystalline nifedipine, Pabst et al.
[2] = 20 mg of dissolved nifedipine in capsules, Pabst et al.

COC(=O)C1=C(C)NC(C)=C(C(=O)OC)C1c1ccccc1[N+](=O)[O-] [nifedipine]
plasma level peaks [1]: about 40 ng/ml
time of plasma level peaks [1]: about 1.5 hours
plasma level peaks [2]: about 200 ng/ml
time of plasma level peaks [2]: about 30 minutes
plasma level peaks (tablet containing 40 mg of nifedipine (EP 220 760), initially): more than 60 ng/ml
